Measured values from patent publication US9527841B2, “Substituted pyrido[2,3-b]pyrazines as phosphodiesterase 2A inhibitors” (Takeda Pharmaceutical Company Limited, priority 2012, dated 2016).

Target: T1, Human PDE2A3 enzyme (Homo sapiens, UniProt O00408)
T1 construct: transfected with the full-length gene; His-tag; made in house; host or cells: Sf9 insect cells
Experiment: PDE Enzyme Inhibition Assay (SPA, [3H]cGMP)
Format: biochemical
Conditions: compound 10 μM; substrate [3H]cGMP 77 nM; 60 min at room temperature; duplicate
Experimental: Human PDE2A3 enzyme was generated from Sf9 cells transfected with the full-length gene. The extracted enzyme from Sf9 cells was purified by His-tag affinity column and gel filtration. The enzyme was stored at −70° C. until use. PDE activity was measured using a SPA (Scintillation Proximity Assay) (GE Healthcare). To evaluate the inhibitory activity, 10 μl of serial diluted compounds were incubated with 20 μl of PDE enzyme in assay buffer (50 mM HEPES-NaOH, 8.3 mM MgCl2, 1.7 mM EGTA, 0.1% BSA (pH 7.4)) at room temperature for 30 min. Final concentration of DMSO in the assay was 1%. The evaluation of the compounds were performed in duplicate in 96-well half-area plates (Corning) or 384-well OptiPlate (PerkinElmer). To start the reaction, 10 μl of substrate [^3H] cGMP (77 nM, PerkinElmer) was added for a final assay volume of 40 μl. After 60 min incubation at room temperature, 20 μl of yttrium SPA beads (20 mg/ml) containing zinc sulphate was added thereto to terminate the PDE reaction. After being settled for additional 1 hr, the assay plates were counted in a scintillation counter (PerkinElmer) to allow calculation of inhibition rate. Inhibition rate was calculated on the basis of 0% control wells with enzyme and DMSO, and 100% control wells without enzyme.

T1 sequence (O00408 whole entry): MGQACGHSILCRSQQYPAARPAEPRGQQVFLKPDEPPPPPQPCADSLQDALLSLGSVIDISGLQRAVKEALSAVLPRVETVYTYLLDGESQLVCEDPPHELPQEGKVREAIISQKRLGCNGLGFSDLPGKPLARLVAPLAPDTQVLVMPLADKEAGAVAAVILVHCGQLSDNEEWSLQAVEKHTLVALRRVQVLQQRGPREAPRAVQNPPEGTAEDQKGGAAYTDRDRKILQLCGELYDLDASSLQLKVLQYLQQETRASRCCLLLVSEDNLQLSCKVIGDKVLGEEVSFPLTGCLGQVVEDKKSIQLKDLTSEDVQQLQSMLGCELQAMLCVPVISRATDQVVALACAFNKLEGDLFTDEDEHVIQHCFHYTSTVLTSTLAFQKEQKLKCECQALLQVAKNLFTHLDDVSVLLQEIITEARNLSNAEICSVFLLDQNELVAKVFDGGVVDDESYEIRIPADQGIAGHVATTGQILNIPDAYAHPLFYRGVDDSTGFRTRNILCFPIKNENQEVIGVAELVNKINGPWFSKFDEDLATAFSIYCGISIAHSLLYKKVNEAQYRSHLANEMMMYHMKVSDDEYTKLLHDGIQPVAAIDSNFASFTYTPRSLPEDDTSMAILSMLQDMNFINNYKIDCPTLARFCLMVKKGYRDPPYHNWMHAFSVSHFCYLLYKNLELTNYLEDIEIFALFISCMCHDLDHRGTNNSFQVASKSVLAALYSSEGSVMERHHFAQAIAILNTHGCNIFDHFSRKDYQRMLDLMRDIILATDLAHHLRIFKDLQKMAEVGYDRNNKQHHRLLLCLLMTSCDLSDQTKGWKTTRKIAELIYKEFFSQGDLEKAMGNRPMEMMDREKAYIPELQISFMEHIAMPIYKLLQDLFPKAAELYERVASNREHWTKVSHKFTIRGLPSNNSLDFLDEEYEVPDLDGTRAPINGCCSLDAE

Row | Compound | inhibition at 10 µM
1 | CCC(Oc1ccc(C(F)(F)F)cc1)C(=O)N1CC(=O)Nc2cccnc21 (centres unmarked) [Example 4, 4-(2-(4-(trifluoromethyl)phenoxy)butanoyl)-3,4-dihydropyrido[2,3-b]pyrazin-2(1H)-one] | 98%
2 | CCC(Oc1ccc(OC(F)(F)F)cc1)C(=O)N1CC(=O)Nc2ccc(C)nc21 (centres unmarked) [Example 28, optical active form of 6-methyl-4-(2-(4-(trifluoromethoxy)phenoxy)butanoyl)-3,4-dihydropyrido[2,3-b]pyrazin-2(1H)-one] | 99%
3 | COc1cnc2c(c1)NC(=O)CN2C(=O)C(Oc1ccc(-n2cccn2)c(F)c1)C(C)C (centres unmarked) [Example 135, 4-(2-(3-fluoro-4-(1H-pyrazol-1-yl)phenoxy)-3-methylbutanoyl)-7-methoxy-3,4-dihydropyrido[2,3-b]pyrazin-2(1H)-one] | 99%
4 | CCC(Oc1ccc(C(C)C)cc1)C(=O)N1CC(=O)Nc2cccnc21 (centres unmarked) [Example 47, 4-(2-(4-isopropylphenoxy)butanoyl)-3,4-dihydropyrido[2,3-b]pyrazin-2(1H)-one] | 98%
5 | O=C1CN(C(=O)[C@@H]2CCCN2c2ccc(OC(F)(F)F)cc2)c2ncccc2N1 [Example 25, 4-(1-(4-(trifluoromethoxy)phenyl)prolyl)-3,4-dihydropyrido[2,3-b]pyrazin-2(1H)-one] | 96%
6 | CCC(Nc1ccc(OC(F)(F)F)cc1)C(=O)N1CC(=O)Nc2cccnc21 (centres unmarked) [Example 23, 4-(2-((4-(trifluoromethoxy)phenyl)amino)butanoyl)-3,4-dihydropyrido[2,3-b]pyrazin-2(1H)-one] | 97%
7 | CC(C)C(Oc1ccc(C(F)(F)F)cc1)C(=O)N1CC(=O)Nc2cccnc21 (centres unmarked) [Example 21, 4-(3-methyl-2-(4-(trifluoromethyl)phenoxy)butanoyl)-3,4-dihydropyrido[2,3-b]pyrazin-2(1H)-one] | 98%
8 | CCC(Oc1ccc(OC(F)(F)F)cc1)C(=O)N1CC(=O)Nc2ccc(-c3ccn(C)n3)nc21 (centres unmarked) [Example 132, optical active form of 6-(1-methyl-1H-pyrazol-3-yl)-4-(2-(4-(trifluoromethoxy)phenoxy)butanoyl)-3,4-dihydropyrido[2,3-b]pyrazin-2(1H)-one] | 100%
9 | CCC(Oc1ccc(S(=O)(=O)C(F)(F)F)cc1)C(=O)N1CC(=O)Nc2cccnc21 (centres unmarked) [Example 75, 4-(2-(4-((trifluoromethyl)sulfonyl)phenoxy)butanoyl)-3,4-dihydropyrido[2,3-b]pyrazin-2(1H)-one] | 95%

Second part, the compound after the results:

Row | inhibition at 10 µM | Compound
10 | 100% | CCC(Oc1ccc(OC(F)(F)F)cc1)C(=O)N1CC(=O)Nc2cc(C)cnc21 (centres unmarked) [Example 6, 7-methyl-4-(2-(4-(trifluoromethoxy)phenoxy)butanoyl)-3,4-dihydropyrido[2,3-b]pyrazin-2(1H)-one]
11 | 99% | CCC(Oc1ccc(OC(F)(F)F)cc1)C(=O)N1CC(=O)Nc2c(C)ccnc21 (centres unmarked) [Example 29, optical active form of 8-methyl-4-(2-(4-(trifluoromethoxy)phenoxy)butanoyl)-3,4-dihydropyrido[2,3-b]pyrazin-2(1H)-one]
12 | 100% | CCC(Oc1ccc(OC(F)(F)F)cc1)C(=O)N1CC(=O)Nc2cccnc21 (centres unmarked) [Example 3, optical active form of 4-(2-(4-(trifluoromethoxy)phenoxy)butanoyl)-3,4-dihydropyrido[2,3-b]pyrazin-2 (1H)-one]
13 | 99% | CCC(Oc1ccc(-n2cccn2)cc1)C(=O)N1CC(=O)Nc2cccnc21 (centres unmarked) [Example 55, 4-(2-(4-(1H-pyrazol-1-yl)phenoxy)butanoyl)-3,4-dihydropyrido[2,3-b]pyrazin-2(1H)-one]
14 | 99% | COCCC(Oc1ccc(OC(F)(F)F)cc1)C(=O)N1CC(=O)Nc2cccnc21 (centres unmarked) [Example 18, 4-(4-methoxy-2-(4-(trifluoromethoxy)phenoxy)butanoyl)-3,4-dihydropyrido[2,3-b]pyrazin-2(1H)-one]
